{
  "source": "patent US20070071818A1",
  "about": "(ARDANA BIOSCIENCE LIMITED, priority 2002, published 2007)",
  "origin": "cited, not measured here",
  "key": {"erectile response": {"test_system": "erectile response", "details": "oral administration; psychogenic patient"}, "[1]": {"test_system": "female sexual arousal disorder", "details": "oral; menopausal women with female sexual arousal disorder"}, "female sexual response": {"test_system": "female sexual response", "details": "female sexual dysfunction"}},
  "note": "Where a name gives a salt, the structure may show the parent alone.",
  "data": [
    {"smiles": "CN1CCc2cccc3c2[C@H]1Cc1ccc(O)c(O)c1-3", "note": "[apomorphine, (6aR)-5,6,6a,7-Tetrahydro-6-methyl-4H-dibenzo[de,g]quinoline-10,11-diol hydrochloride hemihydrate]", "values": [
      {"measurement": "erectile response", "setting": "erectile response", "value": "induce an erection"}
    ]},
    {"smiles": "Cc1ccc(N(CC2=NCCN2)c2cccc(O)c2)cc1", "note": "[phentolamine]", "values": [
      {"measurement": "effect across all measures of arousal", "setting": "[1]", "value": "mild positive effect"}
    ]},
    {"smiles": "CCCc1nn(C)c2c(=O)[nH]c(-c3cc(S(=O)(=O)N4CCN(C)CC4)ccc3OCC)nc12", "note": "[sildenafil]", "values": [
      {"measurement": "subjective and physiologic parameters of the female sexual response", "setting": "female sexual response", "value": "significantly improve"}
    ]}
  ]
}
